Test results as given in patent US12486246B2, “Replication protein A (RPA)-DNA interaction inhibitors” (THE TRUSTEES OF INDIANA UNIVERSITY, priority 2019, dated 2025).
≈ marks a conversion by molar mass, not a printed value.

Legend:
H460 cells = experiment: Caspase 3/7 activation (CellEvent Caspase-3/7 Green); format: cell-based; conditions: 24 hours treatment
Method: Apoptosis induction was determined by activation of Caspase 3 and 7 using the CellEvent™ Caspase-3/7 Green Detection Reagent (Invitrogen). H460 cells were plated at […] in black 96 well plates with clear bottoms (Costar) and incubated for 24 hours prior to treatments. Cells were treated with the indicated concentration of compound 43 or cisplatin for 24 hours. The vehicle (DMSO) concentration was held constant at 1% for compound 43 treatments. For caspase 3/7 detection, media was removed and replaced with PBS containing 5% FBS and 2 μM CellEvent™ Caspase-3/7 Green Detection Reagent. Cells were incubated at 37° C./5% CO2 for 1 hour and fluorescence intensity was measured in a BioTek Synergy H1 plate reader (excitation/emission 485/528). Images were captured with an Evos FL2 Auto microscope (Invitrogen) using a 10× objective.

H460 NSCLC cells = experiment: Combination index (Chou-Talalay), CCK-8 assay; format: cell-based
Method: Cell survival was determined by CCK-8 viability assay and/or clonogenic survival assay in 96 well plates or 24 well plates, respectively and combination index (CI) analysis of drug-drug interactions determined by Chou-Talalay analysis as we have previously described. • 1) CCK-8 metabolic assay: Cells were plated (2500 cells/well) in 96-well plate and allowed to grow for at least 18 hours in at 37° C. in the presence of 5% CO2 before treatment with inhibitor for 48 hours. CCK-8 solution (Dojindo) was added to 10% of the total media volume and after 1-4 hours of incubation absorbance at 450 nm was determined using BioTek® Synergy™ H1 hybrid multi-mode microplate reader • 2) Clonogenic survival assay: Cells were plated in a 24 well (20,000 cells/well) plate, incubated for at least 18 hours and then treated with inhibitor. After 48 hours of treatment, the cells are re-plated in 10 cm dishes (500 cells/dish) and incubated for 8-10 days to allow colony formation. Plates are washed with PBS, fixed with glutaraldehyde and stained with crystal violet. Images of the stained colonies were captured with a Fuji LAS-3000 CCD system then counted using OpenCFU software. Viability is determined as a percent of vehicle controls and plotted versus drug concentration. • 3) Assessment of synergy via combination index (CI): In the combination index studies, cells (H460 or SKGT4) were treated with RPA inhibitor and Pt/etoposide/bleomycin/taxol/DDR inhibitor alone as well as the combination of both—the inhibitor and the DNA damaging chemotherapeutic agent/DDR inhibitor. The range of treatment was dependent on the IC50 of each inhibitor/drug. If the IC50 was X, then the cells were treated at a range of 0.04× to 5× concentration in a CCK-8 metabolic assay. The kill curves from both the single agent treatments as well as the combination treatment were used in a Chou-Talalay based method to determine the combination index (CI) at different fractions of cells affected.^40 A CI>1.0 indicates antagonism between the two agents, while a CI<1.0 indicates synergy.
Inhibiting RPA can act synergistically with DNA damaging therapeutics including cisplatin and etoposide (FIG. 4C). In these studies, we used the Chou-Talalay method, which provides a combination index (CI) that quantifies synergistic activity for each drug combination. […] The synergistic activity of compounds described herein with DNA damaging agents may be explained by RPA's role in the DNA damage response and signaling.

[1] = Aqueous solubility as a function of pH; format: physicochemical; conditions: thermodynamic from solid
Method: Aqueous solubility was determined by suspending compound in un-buffered water with stirring. Insoluble material was removed by sedimentation or filtration and soluble compound quantified by absorbance spectroscopy and LC/MS. pH dependence was determined by suspending compound in 10 mM citrate buffer at pH 4.0 or 10 mM phosphate […] as described above in the description.
The morpholine ring is commonly introduced into solvent exposed regions as a privileged solubilizing group to improve solubility or pharmacokinetic properties including metabolic stability of a prospective drug scaffold which is exemplified by many FDA approved drugs. Modifications on Ring A had less of an effect than the morpholino modifications at the alkyl carboxylic acid side chain. To determine the effect of pH on solubility, we prepared solution at 1 mM in citrate buffer at pH 4, phosphate buffer at pH 7 and carbonate buffer at pH 9.5.

CCOc1ccc2cc(C3CC(c4ccc(I)cc4)=NN3C(=O)CCCC(=O)NCCCN3CCOCC3)c(Cl)nc2c1 (stereo not drawn) [Compound 43, 5-(5-(2-Chloro-7-ethoxyquinolin-3-yl)-3-(4-iodophenyl)-4,5-dihydro-1H-pyrazol-1-yl)-N-(3-morpholinopropyl)-5-oxopentanamide]
caspase 3 and 7 activation (H460 cells): potently activates caspase 3 and 7
synergy (combination index) with bleomycin (H460 NSCLC cells): stronger synergy
synergy (combination index) with DNA damaging therapeutics cisplatin and etoposide (H460 NSCLC cells; CI <1.0 = synergy): even greater synergy than either of its predecessors
solubility ([1]; aqueous buffer at pH 9.5, pH 9.5, aqueous buffer): 3.62 ± 2.22 µM (≈ 2.6 µg/mL)
solubility ([1]; aqueous buffer, pH 4, citrate buffer): 21.4 ± 5.49 µM (≈ 15.4 µg/mL)
solubility ([1]; aqueous buffer, pH 7, phosphate buffer): 5.72 ± 2.79 µM (≈ 4.11 µg/mL)
